Columns and labels:
Format in all cases: cell-based
S. pyogenes C721 = experiment: MIC determination by microtitre broth dilution; conditions: S. pyogenes C721, wt, Gram+; Todd Hewitt broth, 37° C., 24 h
Method: (§1) A. MIC assay of various gram negative and positive bacteria MIC assays were conducted essentially as described by Amsterdam, D. 1996. Susceptibility testing of antimicrobials in liquid media, p. 52-111. In Loman, V., ed. Antibiotics in laboratory medicine, 4th ed. Williams and Wilkins, Baltimore, Md.

S. aureus ATCC25923 C622 = experiment: MIC determination by microtitre broth dilution; conditions: S. aureus ATCC25923 C622, wt, Gram+; Mueller Hinton broth, 37° C., 24 h
Method: as §1

S. epidermidis C621 = experiment: MIC determination by microtitre broth dilution; conditions: S. epidermidis C621, wt, Gram+; Mueller Hinton broth, 37° C., 24 h
Method: as §1

[1] = system: P. aeruginosa PAE/K799 H187; experiment: MIC determination by microtitre broth dilution; conditions: for Minimum Inhibitory Concentrations: P. aeruginosa PAE/K799 H187, wt, Gram−, Mueller Hinton broth, 37° C., 24 h
Method: as §1

E. coli UB1005 C498 = experiment: MIC determination by microtitre broth dilution; conditions: for Minimum Inhibitory Concentrations: E. coli UB1005 C498, wt, Gram−, Mueller Hinton broth, 37° C., 24 h
Method: as §1

[2] = system: K. pneumoniae ATCC13883 C238; experiment: MIC determination by microtitre broth dilution; conditions: for Minimum Inhibitory Concentrations: K. pneumoniae ATCC13883 C238, wt, Gram−, Mueller Hinton broth, 37° C., 24 h
Method: as §1

[3] = system: organisms known to cause vascular access catheter-related infections; experiment: Antibacterial activity of anticancer agents

Compound | Minimum Inhibitory Concentrations (S. pyogenes C721) | Minimum Inhibitory Concentrations (S. aureus ATCC25923 C622) | Minimum Inhibitory Concentrations (S. epidermidis C621) | Minimum Inhibitory Concentrations [1] | Minimum Inhibitory Concentrations (E. coli UB1005 C498) | Minimum Inhibitory Concentrations [2] | antibacterial activity against the organisms known to cause vascular access catheter-related infections [3] | activity against Pseudomonas aeruginosa [1] | activity against Escheridia coli (E. coli UB1005 C498) | activity against Klebsiella pneumoniae [2]
Sc1ncc2[nH]cnc2n1 [2-mercaptopurine] | N | N | N | N | N | N | did not have antibacterial activity |  |  | 
O=c1[nH]cc(F)c(=O)[nH]1 [5-fluorouracil, 5-Fluorouracil] | 10^−4 Molar | 10^−7 Molar | 10^−7 Molar | 10^−5 Molar | 10^−6 Molar | 10^−6 Molar |  | have activity | have activity | 
Sc1ncnc2nc[nH]c12 [6-mercaptopurine] | N | N | N | N | N | N | did not have antibacterial activity |  |  | 
Nc1ccn([C@@H]2O[C@H](CO)[C@@H](O)[C@@H]2O)c(=O)n1 [Cytarabine] | N | N | N | N | N | N | did not have antibacterial activity |  |  | 
CC[C@@]1(O)C(=O)OCc2c1cc1n(c2=O)Cc2cc3ccccc3nc2-1 [camptothecin, Camptothecin] | N | N | 10^−4 Molar | N | N | N | did not have antibacterial activity |  |  | 
COc1cccc2c1C(=O)c1c(O)c3c(c(O)c1C2=O)C[C@@](O)(C(=O)CO)C[C@@H]3O[C@H]1C[C@H](N)[C@H](O)[C@H](C)O1 [doxorubicin, Doxorubicin] | 10^−7 Molar | 10^−5 Molar | 10^−6 Molar | 10^−5 Molar | 10^−4 Molar | 10^−6 Molar |  | have activity | have activity | 
COc1cc([C@@H]2c3cc4c(cc3[C@@H](O[C@@H]3O[C@@H]5CO[C@@H](C)O[C@H]5[C@H](O)[C@H]3O)[C@H]3COC(=O)[C@H]23)OCO4)cc(OC)c1O [etoposide, Etoposide] | 10^−5 Molar | 10^−5 Molar | 10^−6 Molar | N | N | 10^−5 Molar |  |  |  | 
NC(=O)NO [hydroxyurea] | 10^−4 Molar | N | N | 10^−4 Molar | N | N | did not have antibacterial activity | some activity |  | 
CN(Cc1cnc2nc(N)nc(N)c2n1)c1ccc(C(=O)N[C@@H](CCC(=O)O)C(=O)O)cc1 [methotrexate, Methotrexate] | 10^−6 Molar | 10^−5 Molar | N | N | N | 10^−6 Molar |  |  |  | activity
O=C1c2c(O)ccc(O)c2C(=O)c2c(NCCNCCO)ccc(NCCNCCO)c21 [mitoxantrone, Mitoxantrone] | 10^−6 Molar | 10^−5 Molar | 10^−5 Molar | 10^−5 Molar | 10^−5 Molar | 10^−6 Molar |  | have activity | have activity | 
CC(=O)O[C@H]1C(=O)[C@@]2(C)[C@H]([C@H](OC(=O)c3ccccc3)[C@]3(O)C[C@H](OC(=O)[C@H](O)[C@@H](NC(=O)c4ccccc4)c4ccccc4)C(C)=C1C3(C)C)[C@]1(OC(C)=O)CO[C@@H]1C[C@@H]2O [paclitaxel] |  |  |  |  |  |  | did not have antibacterial activity |  |  | 
Nc1ncnc2c1ccn2[C@@H]1O[C@H](CO)[C@@H](O)[C@H]1O [tubercidin] | N | N | N | N | N | N | did not have antibacterial activity |  |  | 
Cisplatin | N | N | N | 10^−4 Molar | N | N | did not have antibacterial activity | some activity |  | 
